Data from ChEMBL document CHEMBL5528039, “Discovery of a Macrocyclic Influenza Cap-Dependent Endonuclease Inhibitor” (J Med Chem, 2024).
Activity calls are given as the source filed them. The calls are words filed in the database; no cut-off is given here.

Key:
[1] = Prodrug conversion in Beagle dog assessed as (7aS,16R)-2,3-difluoro-10-hydroxy-8-methyl-16-phenyl-6,7,7a,8-tetrahydro-16H-benzo[b]pyrido[1',2':1,6][1,2,4]triazino[2,3-e][1,5]oxazocine-9,11-dione Cmax at 1 mg/kg, po measured after 24 hrs by LC-MS/MS analysis; type: ADME, organism-based, Canis lupus familiaris; conditions: in vivo
Influenza B virus [2] = experiment: Antiviral activity against Influenza B virus B/Lee/40 infected in BALB/c mouse assessed as reduction in improvement in survival rate at 0.5 to 5 mg/kg, po pre-infected with virus for 24 hrs followed by twice daily compound administration from day 1 to 7 and measured on day 14; type: functional, organism-based; conditions: dose 0.5-5 mg/kg, time 14.0 day
Influenza A virus [3] = experiment: Antiviral activity against Influenza A virus A/PR/8/34 infected in BALB/c mouse assessed as reduction in body weight loss at 5 to 30 mg/kg, po pre-infected with virus for 48 hrs followed by twice daily compound administration starting from day 2 and measured on day 5; type: functional, organism-based; conditions: dose 5-30 mg/kg, time 72.0 hrs
[4] = Prodrug conversion in BALB/c mouse infected with Influenza B virus B/Lee/40 assessed as (7aS,16R)-2,3-difluoro-10-hydroxy-8-methyl-16-phenyl-6,7,7a,8-tetrahydro-16H-benzo[b]pyrido[1',2':1,6][1,2,4]triazino[2,3-e][1,5]oxazocine-9,11-dione formation by measuring Ctau at 5 mg/kg, po pre-infected with virus for 24 hrs followed by twice daily compound administration from day 1 to 7 and measured on day 14 by LC-MS/MS analysis; type: ADME, organism-based; conditions: in vivo, 336 h, time 14 day
[5] = Prodrug conversion in BALB/c mouse assessed as (7aS,16R)-2,3-difluoro-10-hydroxy-8-methyl-16-phenyl-6,7,7a,8-tetrahydro-16H-benzo[b]pyrido[1',2':1,6][1,2,4]triazino[2,3-e][1,5]oxazocine-9,11-dione Cmax at 10 mg/kg, po measured after 24 hrs by LC-MS/MS analysis; type: ADME, organism-based; conditions: in vivo
[6] = Prodrug conversion in cynomolgus monkey assessed as (7aS,16R)-2,3-difluoro-10-hydroxy-8-methyl-16-phenyl-6,7,7a,8-tetrahydro-16H-benzo[b]pyrido[1',2':1,6][1,2,4]triazino[2,3-e][1,5]oxazocine-9,11-dione Cmax at 1 mg/kg, po measured after 24 hrs by LC-MS/MS analysis; type: ADME, organism-based, Macaca fascicularis; conditions: in vivo
Influenza B virus [7] = experiment: Antiviral activity against Influenza B virus B/Lee/40 infected in BALB/c mouse assessed as reduction in body weight loss at 0.5 to 5 mg/kg, po pre-infected with virus for 24 hrs followed by twice daily compound administration from day 1 to 7 and measured on day 14; type: functional, organism-based; conditions: dose 0.5-5 mg/kg, time 14.0 day
[8] = Prodrug conversion in BALB/c mouse assessed as (7aS,16R)-2,3-difluoro-10-hydroxy-8-methyl-16-phenyl-6,7,7a,8-tetrahydro-16H-benzo[b]pyrido[1',2':1,6][1,2,4]triazino[2,3-e][1,5]oxazocine-9,11-dione half-life at 10 mg/kg, po measured after 24 hrs by LC-MS/MS analysis; type: ADME, organism-based; conditions: in vivo
[9] = Prodrug conversion in BALB/c mouse infected with Influenza B virus B/Lee/40 assessed as (7aS,16R)-2,3-difluoro-10-hydroxy-8-methyl-16-phenyl-6,7,7a,8-tetrahydro-16H-benzo[b]pyrido[1',2':1,6][1,2,4]triazino[2,3-e][1,5]oxazocine-9,11-dione formation at 0.5 to 5 mg/kg, po pre-infected with virus for 24 hrs followed by twice daily compound administration from day 1 to 7 and measured on day 14 by LC-MS/MS analysis; type: ADME, organism-based; conditions: in vivo, 336 h, dose 0.5-5 mg/kg, time 14 day
[10] = Prodrug conversion in Beagle dog assessed as (7aS,16R)-2,3-difluoro-10-hydroxy-8-methyl-16-phenyl-6,7,7a,8-tetrahydro-16H-benzo[b]pyrido[1',2':1,6][1,2,4]triazino[2,3-e][1,5]oxazocine-9,11-dione AUC (0 to last) at 1 mg/kg, po measured after 24 hrs by LC-MS/MS analysis; type: ADME, organism-based, Canis lupus familiaris; conditions: in vivo
[11] = Prodrug conversion in BALB/c mouse assessed as (7aS,16R)-2,3-difluoro-10-hydroxy-8-methyl-16-phenyl-6,7,7a,8-tetrahydro-16H-benzo[b]pyrido[1',2':1,6][1,2,4]triazino[2,3-e][1,5]oxazocine-9,11-dione AUC (0 to last) at 10 mg/kg, po measured after 24 hrs by LC-MS/MS analysis; type: ADME, organism-based; conditions: in vivo
[12] = Prodrug conversion in Beagle dog assessed as (7aS,16R)-2,3-difluoro-10-hydroxy-8-methyl-16-phenyl-6,7,7a,8-tetrahydro-16H-benzo[b]pyrido[1',2':1,6][1,2,4]triazino[2,3-e][1,5]oxazocine-9,11-dione half-life at 1 mg/kg, po measured after 24 hrs by LC-MS/MS analysis; type: ADME, organism-based, Canis lupus familiaris; conditions: in vivo
[13] = Prodrug conversion in cynomolgus monkey assessed as (7aS,16R)-2,3-difluoro-10-hydroxy-8-methyl-16-phenyl-6,7,7a,8-tetrahydro-16H-benzo[b]pyrido[1',2':1,6][1,2,4]triazino[2,3-e][1,5]oxazocine-9,11-dione half-life at 1 mg/kg, po measured after 24 hrs by LC-MS/MS analysis; type: ADME, organism-based, Macaca fascicularis; conditions: in vivo
[14] = Prodrug conversion in cynomolgus monkey assessed as (7aS,16R)-2,3-difluoro-10-hydroxy-8-methyl-16-phenyl-6,7,7a,8-tetrahydro-16H-benzo[b]pyrido[1',2':1,6][1,2,4]triazino[2,3-e][1,5]oxazocine-9,11-dione AUC (0 to last) at 1 mg/kg, po measured after 24 hrs by LC-MS/MS analysis; type: ADME, organism-based, Macaca fascicularis; conditions: in vivo
Influenza A virus [15] = experiment: Antiviral activity against Influenza A virus A/PR/8/34 infected in BALB/c mouse assessed as reduction in viral load in lungs at 5 to 30 mg/kg, po pre-infected with virus for 48 hrs followed by twice daily compound administration starting from day 2 and measured 1 hrs after last dose on day 5 by crystal violet staining based analysis; type: functional, organism-based; conditions: dose 5-30 mg/kg, time 73.0 hrs

In the case of `COC(=O)OCOc1c2n(ccc1=O)N1[C@H](c3ccccc3)c3cc(F)c(F)cc3OCC[C@H]1N(C)C2=O`, the Cmax [1] is reported as 171 nM, the Activity (Influenza B virus [2]) is reported as “Active” and the Activity (Influenza A virus [3]) is reported as “Active”. It also gave a Ctau [4] greater than 16 nM, a Cmax [5] of 309 nM and a Cmax [6] of 163 nM. For the same molecule, the Activity (Influenza B virus [7]) was “Active”, the t1/2 [8] was 1.3 h and the Drug metabolism [9] was “Metabolite_Detected”. The AUClast [10] was 0.724 µM·h, the AUClast [11] was 0.93 µM·h and the t1/2 [12] was 4.4 h. For the same molecule, the t1/2 [13] was 3.6 h, the AUClast [14] was 0.785 µM·h and the Activity (Influenza A virus [15]) was “Active”.
